Measurements reported in US10844045B2, “Pharmaceutical salts N-(2-(2-(dimethylamino)ethoxy)-4-methoxy-5-((4-(1-methyl-1H-indol-3-yl)pyrimidin-2-yl)amino)phenyl)acrylamide and crystalline forms thereof” (Beta Pharma, Inc., priority 2016, dated 2020).
Where a name gives a salt, the structure may show the parent alone. Read-outs that look alike come from different tables or passages of the source.

Assays:
[1] = Dynamic vapor sorption (DVS); assay type: physicochemical; conditions: for hygroscopicity classification according to DVS results / weight gain (DVS): from 0 to 80% RH
Solubility of salt forms = assay type: physicochemical; conditions: for Final pH: final pH of the solubility test
[2] = tested on: kinase domain of the T790M double mutant; conditions: cited from earlier work

| SMILES | DVS Sorption [1] | Solubility (Solubility of salt forms) | Final pH (Solubility of salt forms) | inhibition of the kinase domain of the T790M double mutant [2] | hygroscopicity classification according to DVS results [1] | weight gain (DVS) [1] | DVS Sorption ([1]; listed as 2 (Form 2A)) | Solubility (Solubility of salt forms; read-out: Solubility) |
| --- | --- | --- | --- | --- | --- | --- | --- | --- |
| C=CC(=O)Nc1cc(Nc2nccc(-c3cn(C)c4ccccc34)n2)c(OC)cc1OCCN(C)C [3 (Form 2B), N-(2-(2-(Dimethylamino)ethoxy)-4-methoxy-5-((4-(1-methyl-1H-indol-3-yl)pyrimidin-2-yl)amino)phenyl)acrylamide methanesulfonate (1:1)] | 14.44% | – | – | – | – | – | – | – |
| C=CC(=O)Nc1cc(Nc2nccc(-c3cn(C)c4ccccc34)n2)c(OC)cc1OCCN(C)C [Compound 1, N-(2-(2-(Dimethylamino)ethoxy)-4-methoxy-5-((4-(1-methyl-1H-indol-3-yl)pyrimidin-2-yl)amino)phenyl)acrylamide] | – | 50 µg/mL | 6.2 | effectively inhibits | – | – | – | – |
| C=CC(=O)Nc1cc(Nc2nccc(-c3cn(C)c4ccccc34)n2)c(OC)cc1OCCN(C)C [Compound 2, N-(2-(2-(Dimethylamino)ethoxy)-4-methoxy-5-((4-(1-methyl-1H-indol-3-yl)pyrimidin-2-yl)amino)phenyl)acrylamide methanesulfonate (1:1)] | – | >53000 µg/mL | 4.9 | – | hygroscopic | 14.44% | 0.91% | – |
| C=CC(=O)Nc1cc(Nc2nccc(-c3cn(C)c4ccccc34)n2)c(OC)cc1OCCN(C)C.Cl [Compound 3, N-(2-(2-(Dimethylamino)ethoxy)-4-methoxy-5-((4-(1-methyl-1H-indol-3-yl)pyrimidin-2-yl)amino)phenyl)acrylamide hydrochloride (1:1)] | 0.76% | – | 6.0 | – | slightly hygroscopic | 0.76% | – | 810 µg/mL |
| C=CC(=O)Nc1cc(Nc2nccc(-c3cn(C)c4ccccc34)n2)c(OC)cc1OCCN(C)C [Compound 4, N-(2-(2-(Dimethylamino)ethoxy)-4-methoxy-5-((4-(1-methyl-1H-indol-3-yl)pyrimidin-2-yl)amino)phenyl)acrylamide sulfate (1:1)] | 10.60% | >79000 µg/mL | 2.4 | – | hygroscopic | 10.60% | – | – |
| C=CC(=O)Nc1cc(Nc2nccc(-c3cn(C)c4ccccc34)n2)c(OC)cc1OCCN(C)C.Cc1ccc(S(=O)(=O)O)cc1 [Compound 5, N-(2-(2-(Dimethylamino)ethoxy)-4-methoxy-5-((4-(1-methyl-1H-indol-3-yl)pyrimidin-2-yl)amino)phenyl)acrylamide p-toluenesulfonate (1:1)] | 1.86% | – | 5.8 | – | slightly hygroscopic | 1.86% | – | 530 µg/mL |
| C=CC(=O)Nc1cc(Nc2nccc(-c3cn(C)c4ccccc34)n2)c(OC)cc1OCCN(C)C [Compound 6, N-(2-(2-(Dimethylamino)ethoxy)-4-methoxy-5-((4-(1-methyl-1H-indol-3-yl)pyrimidin-2-yl)amino)phenyl)acrylamide citrate (1:1)] | – | 6900 µg/mL | 4.6 | – | – | – | – | – |
